From ChEMBL document CHEMBL2074200, “Reversal of P-glycoprotein-mediated MDR by 5,7,3',4',5'-pentamethoxyflavone and SAR” (Biochem Biophys Res Commun, 2004) come the findings set out here.

SMILES strings stand for the structures.

The target in the data set is ATP-dependent translocase ABCB1 (Homo sapiens, UniProt P08183). The data set can be described thus: TP_TRANSPORTER: increase in Rhodamine 123 intracellular accumulation in AML-2/D100 cells. The data set is classed as functional, cell-based.
ATP-dependent translocase ABCB1, sequence (P08183 whole entry): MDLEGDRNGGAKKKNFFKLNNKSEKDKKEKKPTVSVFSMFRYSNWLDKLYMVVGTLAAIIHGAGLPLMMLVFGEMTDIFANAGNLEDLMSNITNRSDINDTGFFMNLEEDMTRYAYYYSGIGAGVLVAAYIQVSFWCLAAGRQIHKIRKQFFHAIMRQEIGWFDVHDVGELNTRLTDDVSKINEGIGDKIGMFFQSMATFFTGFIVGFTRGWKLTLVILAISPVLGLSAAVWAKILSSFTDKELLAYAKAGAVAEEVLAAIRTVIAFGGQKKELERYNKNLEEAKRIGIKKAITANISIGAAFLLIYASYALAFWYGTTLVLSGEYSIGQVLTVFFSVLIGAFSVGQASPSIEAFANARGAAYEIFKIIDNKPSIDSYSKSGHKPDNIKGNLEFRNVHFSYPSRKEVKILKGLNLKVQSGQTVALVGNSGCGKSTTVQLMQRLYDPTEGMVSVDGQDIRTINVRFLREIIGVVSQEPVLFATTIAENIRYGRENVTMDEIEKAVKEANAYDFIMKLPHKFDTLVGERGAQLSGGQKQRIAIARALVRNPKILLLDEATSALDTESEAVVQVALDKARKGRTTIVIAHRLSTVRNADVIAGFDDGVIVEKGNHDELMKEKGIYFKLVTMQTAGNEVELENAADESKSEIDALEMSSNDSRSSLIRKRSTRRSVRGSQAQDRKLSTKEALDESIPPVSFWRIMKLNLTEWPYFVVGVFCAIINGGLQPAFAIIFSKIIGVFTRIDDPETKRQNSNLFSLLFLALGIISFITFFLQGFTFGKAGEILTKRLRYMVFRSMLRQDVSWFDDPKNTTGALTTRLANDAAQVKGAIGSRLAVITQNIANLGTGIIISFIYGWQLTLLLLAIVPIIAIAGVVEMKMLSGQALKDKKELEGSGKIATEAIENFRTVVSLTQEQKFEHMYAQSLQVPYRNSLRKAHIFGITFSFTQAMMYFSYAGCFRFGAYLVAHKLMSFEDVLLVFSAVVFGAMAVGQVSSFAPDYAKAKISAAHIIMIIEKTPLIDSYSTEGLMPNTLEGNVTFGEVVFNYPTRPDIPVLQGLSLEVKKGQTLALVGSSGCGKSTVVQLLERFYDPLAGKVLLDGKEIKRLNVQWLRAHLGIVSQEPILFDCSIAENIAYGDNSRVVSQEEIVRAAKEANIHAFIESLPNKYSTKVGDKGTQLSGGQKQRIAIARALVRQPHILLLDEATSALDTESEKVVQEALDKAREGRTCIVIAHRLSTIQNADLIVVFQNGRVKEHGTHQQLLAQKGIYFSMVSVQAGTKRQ

In the case of `COc1cc(OC)c2c(=O)cc(-c3cc(OC)c(OC)c(OC)c3)oc2c1`, the Activity entry is “inhibitor [+]”.
